One experiment relates to P388 Leukemia. Description: Murine P388 leukemia, increase in mean life span. Format: in vivo, CD2F1 mice. The conditions noted are these: days 1,5,9. On the procedure: CD2F1 mice are injected i.p. with 1 x 10^6 tumor cells on Day 0 of the test. Drugs are administered i.p. on Days 1, 5, and 9 after the tumor implantation. Positive drug response is indicated by a more than 25% increase in the mean life span (% ILS), relative to placebo treated controls. Drugs are considered to be toxic when the mean life span of the drug treated animals is more than 15% shorter than placebo treated controls.

Experiment [1] relates to Colon 26 Advanced, Metastatic Tumor. Description: Murine Colon 26 advanced, metastatic tumor, increase in mean life span. The class given is in vivo, CD2F1 mice. To be noted: days 5,9,13. As for the experimental part: CD2F1 mice are injected i.p. with 5 x 10^5 tumor cells on Day 0 of the test. Drugs are administered i.p. on Days 5, 9, and 13 after the tumor implantation. Positive drug response is indicated by a more than 25% increase in the mean life span (% ILS), relative to placebo treated controls. Drugs are considered to be toxic when the mean life span of the drug treated animals is more than 15% shorter than placebo treated controls.

Another experiment relates to A2780 S cells. Description: Two cell line test procedure, in vitro cytotoxicity (sulforhodamine B), A2780 S. Format: cell-based. The conditions noted are these: Homo sapiens, A2780S, 48 hours exposure. On the procedure:
(§1) A2780 S and A2780 DDP cells [Biochemical and Molecular Properties of Cisplatin-resistant A2780 Cells Grown in Folinic Acid; Y. Lu, J. Hnan, and K. Scanlon, J. Biol. Chem., 263, 4891-4894, 1988.] are grown in RPMI 1640 medium containing 5% fetal calf serum, 50 µg/ml streptomycin, 50 units/ml penicillin, 50 µg/ml gentamycin, 0.03% L-glutamine, 1 nM estradiol, 1 nM testosterone, 5 µg/ml insulin, 5 µg/ml transferrin, and 5 ng/ml selenous acid, at 37°C, in a humidified atmosphere, containing 5% CO2. Experiments are done in the same media.
(§2) Cells are plated at the concentration of 5 x 10^4/ml on Day 0 of the experiment. On Day one cells are fixed with trichloroacetic acid and 5 ten-fold dilutions of tested compounds are added, in duplicates, to the remaining cells. On Day 3 (48 hours exposure to drugs) all cells are fixed with trichloroacetic acid, stained with 0.4% sulforhodamine B, and absorbency is read at 520 nm. The IC50 (concentration causing 50% inhibition) are determined for each drug.

In a further experiment the test system is A2780 DDP cells. Briefly: Two cell line test procedure, in vitro cytotoxicity (sulforhodamine B), A2780 DDP. Format: cell-based. The conditions noted are these: Homo sapiens; A2780 DDP cells (cisplatin-resistant), 48 hours exposure. As for the experimental part:
as §1, §2

A further experiment deals with P388. The conditions noted are these: literature report; cited from earlier work.

We go through nine compounds from patent EP0944628B1, “HETERO-BIARYL-PYRIDOQUINAZOLINONE DERIVATIVES AS ANTI-CANCER AGENTS” (American Cyanamid Company, priority 1996, dated 1998).

≈ marks a conversion by molar mass, not a printed value.

By IC50 is commonly meant the concentration that inhibits the measured activity by half. As to `CN(C)CCNC(=O)c1cccn2c(=O)c3cc(-c4cccnc4)ccc3nc12` [Example 06, N-[2-(Dimethylamino)ethyl]-11-oxo-2-(3-pyridinyl)-11H-Pyrido-[2,1-b]quinazoline-6-carboxamide], the “% ILS” value in the experiment on P388 Leukemia (P388, dose 50 mg/kg i.p.) was “+16%”; in the experiment on P388 Leukemia (P388, dose 100 mg/kg i.p.), “+22%”; in the experiment with P388 Leukemia (P388, dose 200 mg/kg i.p.), “+47%”; in experiment [1] (COLON 26, dose 100 mg/kg i.p.), “+9%”; in experiment [1] (COLON 26, dose 200 mg/kg i.p.), “+15%”; in experiment [1] (COLON 26, dose 300 mg/kg i.p.), “+21%”. Also, the IC50 in the experiment with A2780 S cells worked out at 0.9 µg/mL (≈ 2.32 µM); with A2780 DDP cells it was 5 µg/mL (≈ 12.9 µM).
In the case of `CC[C@]1(O)C[C@H]2CN(CCc3c([nH]c4ccccc34)[C@@](C(=O)OC)(c3cc4c(cc3OC)N(C=O)[C@H]3[C@@](O)(C(=O)OC)[C@H](OC(C)=O)[C@]5(CC)C=CCN6CC[C@]43[C@@H]65)C2)C1` [Vincristine, reference compound], the “% ILS” value with P388 Leukemia (P388, dose 0.8 mg/kg i.p.) is “+114%”.
Consider `O=C(NCCN1CCCC1)c1cccn2c(=O)c3cc(-c4ccncc4)ccc3nc12` [Example 08, 11-Oxo-2-(4-pyridinyl)-N-[2-(1-pyrrolidinyl)ethyl]-11H-pyrido-[2,1-b]quinazoline-6-carboxamide], for which the IC50 with A2780 S cells came to 0.8 µg/mL (≈ 1.93 µM); in the experiment on A2780 DDP cells, 3.7 µg/mL (≈ 8.95 µM).
As for `CN(C)CCNC(=O)c1cccn2c(=O)c3ccc(-c4ccncc4)cc3nc12` [Example 16, N-[2-(Dimethylamino)ethyl]-11-oxo-3-(4-pyridinyl)-11H-pyrido-[2,1-b]quinazoline-6-carboxamide], the IC50 in the experiment on A2780 S cells is 7 µg/mL (≈ 18.1 µM); in the experiment with A2780 DDP cells, 8.6 µg/mL (≈ 22.2 µM).
On the same counts, the results for `CN(C)CCNC(=O)c1cccn2c(=O)c3cc(-c4cnc5ccccc5c4)ccc3nc12` [Example 10, N-[2-(Dimethylamino)ethyl]-11-oxo-2-(3-quinolinyl)-11H-pyrido[2,1-b]quinazoline-6-carboxamide] are 4.5 µg/mL (≈ 10.3 µM) and 5.3 µg/mL (≈ 12.1 µM).
With `CN(C)CCNC(=O)c1cccn2c(=O)c3cc(-c4ccncc4)ccc3nc12` [Example 07, N-[2-(Dimethylamino)ethyl]-11-oxo-2-(4-pyridinyl)-11H-pyrido-[2,1-b]quinazoline-6-carboxamide], the “% ILS” value in the experiment with P388 Leukemia (P388, dose 50 mg/kg i.p.) is recorded as “+20%”; in the experiment on P388 Leukemia (P388, dose 100 mg/kg i.p.) it was “+29%”; in the experiment on P388 Leukemia (P388, dose 200 mg/kg i.p.), “+49%”; in experiment [1] (COLON 26, dose 100 mg/kg i.p.), -15%; in experiment [1] (COLON 26, dose 200 mg/kg i.p.), -52%; in experiment [1] (COLON 26, dose 300 mg/kg i.p.), -58%. Also, the results for the IC50 in the experiment with A2780 S cells and in the experiment with A2780 DDP cells were 0.7 µg/mL (≈ 1.81 µM) and 5.6 µg/mL (≈ 14.5 µM), respectively.
`COc1cccc2c1C(=O)c1c(O)c3c(c(O)c1C2=O)C[C@@](O)(C(=O)CO)C[C@@H]3O[C@H]1C[C@H](N)[C@H](O)[C@H](C)O1` [Adriamycin, reference compound]: the “% ILS” value in experiment [1] (COLON 26, dose 4 mg/kg i.p.) is recorded as “+70%”.
Take `CN(C)CCNC(=O)c1cccn2c(=O)c3ccc(-c4cccnc4)cc3nc12` [Example 15, N-[2-(Dimethylamino)ethyl]-11-oxo-3-(3-pyridinyl)-11H-pyrido-[2,1-b]quinazoline-6-carboxamide]: the “% ILS” value in the experiment with P388 Leukemia (P388, dose 50 mg/kg i.p.) is recorded as “+8%”; with P388 Leukemia (P388, dose 100 mg/kg i.p.) it was “+18%”; with P388 Leukemia (P388, dose 200 mg/kg i.p.) it was “+37%”; in experiment [1] (COLON 26, dose 100 mg/kg i.p.) it was “+15%”; in experiment [1] (COLON 26, dose 200 mg/kg i.p.), “+64%”; in experiment [1] (COLON 26, dose 300 mg/kg i.p.), -3%. Also, the results for the concentration for half-maximal inhibition (IC50) in the experiment with A2780 S cells and in the experiment with A2780 DDP cells were 0.6 µg/mL (≈ 1.55 µM) and 0.7 µg/mL (≈ 1.81 µM), respectively.
Take `CN(C)CCNC(=O)c1cccn2c(=O)c3ccccc3nc12` [I, N-[2-(dimethylamino)ethyl]-11-oxo-11H-pyrido[2,1-b]quinalzoline-6-carboxamide]: the “activity in a P388 mouse model” value in the experiment on P388 was “inactive”.
